Source: ChEMBL document CHEMBL4004838, “Design and synthesis of novel phenyl -1, 4-beta-carboline-hybrid molecules as potential anticancer agents” (Eur J Med Chem, 2017)

Tests used:
Format in all cases: functional
[1] = test system: CCRF-CEM; assay: Growth inhibition of human CCRF-CEM cells assessed as cell growth at 10^-5 M incubated for 48 hrs by sulforhodamine B assay relative to control; conditions: read-out: Activity
[2] = test system: HL-60(TB); assay: Growth inhibition of human HL-60(TB) cells assessed as cell growth at 10^-5 M incubated for 48 hrs by sulforhodamine B assay relative to control; conditions: HL-60, 48 h, read-out: Activity
[3] = test system: K562; assay: Growth inhibition of human K562 cells assessed as cell growth at 10^-5 M incubated for 48 hrs by sulforhodamine B assay relative to control; conditions: K562, 48 h, read-out: Activity
[4] = test system: MOLT-4; assay: Growth inhibition of human MOLT4 cells assessed as cell growth at 10^-5 M incubated for 48 hrs by sulforhodamine B assay relative to control; conditions: MOLT-4, 48 h, read-out: Activity
[5] = test system: SR; assay: Growth inhibition of human SR cells assessed as cell growth at 10^-5 M incubated for 48 hrs by sulforhodamine B assay relative to control; conditions: read-out: Activity
[6] = test system: HOP-92; assay: Growth inhibition of human HOP92 cells assessed as cell growth at 10^-5 M incubated for 48 hrs by sulforhodamine B assay relative to control; conditions: HOP-92, 48 h, read-out: Activity
[7] = test system: NCI-H226; assay: Growth inhibition of human NCI-H226 cells assessed as cell growth at 10^-5 M incubated for 48 hrs by sulforhodamine B assay relative to control; conditions: NCI-H226, 48 h, read-out: Activity
[8] = test system: NCI-H23; assay: Growth inhibition of human NCI-H23 cells assessed as cell growth at 10^-5 M incubated for 48 hrs by sulforhodamine B assay relative to control; conditions: NCI-H23, 48 h, read-out: Activity
[9] = test system: NCI-H322M; assay: Growth inhibition of human NCI-H322M cells assessed as cell growth at 10^-5 M incubated for 48 hrs by sulforhodamine B assay relative to control; conditions: read-out: Activity
[10] = test system: COLO 205; assay: Growth inhibition of human COLO205 cells assessed as cell growth at 10^-5 M incubated for 48 hrs by sulforhodamine B assay relative to control; conditions: COLO 205, 48 h, read-out: Activity
[11] = test system: HCC 2998; assay: Growth inhibition of human HCC2998 cells assessed as cell growth at 10^-5 M incubated for 48 hrs by sulforhodamine B assay relative to control; conditions: HCC 2998, 48 h, read-out: Activity
[12] = test system: HCT-15; assay: Growth inhibition of human HCT15 cells assessed as cell growth at 10^-5 M incubated for 48 hrs by sulforhodamine B assay relative to control; conditions: HCT-15, 48 h, read-out: Activity
[13] = test system: HT-29; assay: Growth inhibition of human HT-29 cells assessed as cell growth at 10^-5 M incubated for 48 hrs by sulforhodamine B assay relative to control; conditions: HT-29, 48 h, read-out: Activity
[14] = test system: SNB-75; assay: Growth inhibition of human SNB75 cells assessed as cell growth at 10^-5 M incubated for 48 hrs by sulforhodamine B assay relative to control; conditions: SNB-75, 48 h, read-out: Activity
[15] = test system: U-251; assay: Growth inhibition of human U251 cells assessed as cell growth at 10^-5 M incubated for 48 hrs by sulforhodamine B assay relative to control; conditions: U-251, 48 h, read-out: Activity
[16] = test system: LOX IMVI; assay: Growth inhibition of human LOXIMVI cells assessed as cell growth at 10^-5 M incubated for 48 hrs by sulforhodamine B assay relative to control; conditions: read-out: Activity
[17] = test system: Malme-3M; assay: Growth inhibition of human MALME-3M cells assessed as cell growth at 10^-5 M incubated for 48 hrs by sulforhodamine B assay relative to control; conditions: read-out: Activity
[18] = test system: MDA-MB-435; assay: Growth inhibition of human MDA-MB-435 cells assessed as cell growth at 10^-5 M incubated for 48 hrs by sulforhodamine B assay relative to control; conditions: MDA-MB-435, 48 h, read-out: Activity
[19] = test system: SK-MEL-2; assay: Growth inhibition of human SK-MEL-2 cells assessed as cell growth at 10^-5 M incubated for 48 hrs by sulforhodamine B assay relative to control; conditions: SK-MEL-2, 48 h, read-out: Activity
[20] = test system: UACC-62; assay: Growth inhibition of human UACC62 cells assessed as cell growth at 10^-5 M incubated for 48 hrs by sulforhodamine B assay relative to control; conditions: UACC-62, 48 h, read-out: Activity
[21] = test system: OVCAR-3; assay: Growth inhibition of human OVCAR3 cells assessed as cell growth at 10^-5 M incubated for 48 hrs by sulforhodamine B assay relative to control; conditions: OVCAR-3, 48 h, read-out: Activity
[22] = test system: OVCAR-4; assay: Growth inhibition of human OVCAR4 cells assessed as cell growth at 10^-5 M incubated for 48 hrs by sulforhodamine B assay relative to control; conditions: OVCAR-4, 48 h, read-out: Activity
[23] = test system: OVCAR-5; assay: Growth inhibition of human OVCAR5 cells assessed as cell growth at 10^-5 M incubated for 48 hrs by sulforhodamine B assay relative to control; conditions: OVCAR-5, 48 h, read-out: Activity
[24] = test system: NCI/ADR-RES; assay: Growth inhibition of human NCI-ADR-RES cells assessed as cell growth at 10^-5 M incubated for 48 hrs by sulforhodamine B assay relative to control; conditions: read-out: Activity
[25] = test system: 786-0; assay: Growth inhibition of human 786-0 cells assessed as cell growth at 10^-5 M incubated for 48 hrs by sulforhodamine B assay relative to control; conditions: 786-0, 48 h, read-out: Activity
[26] = test system: ACHN; assay: Growth inhibition of human ACHN cells assessed as cell growth at 10^-5 M incubated for 48 hrs by sulforhodamine B assay relative to control; conditions: read-out: Activity
[27] = test system: TK-10; assay: Growth inhibition of human TK10 cells assessed as cell growth at 10^-5 M incubated for 48 hrs by sulforhodamine B assay relative to control; conditions: TK-10, 48 h, read-out: Activity
[28] = test system: UO-31; assay: Growth inhibition of human UO31 cells assessed as cell growth at 10^-5 M incubated for 48 hrs by sulforhodamine B assay relative to control; conditions: UO-31, 48 h, read-out: Activity
[29] = test system: DU-145; assay: Growth inhibition of human DU145 cells assessed as cell growth at 10^-5 M incubated for 48 hrs by sulforhodamine B assay relative to control; conditions: DU-145, 48 h, read-out: Activity
[30] = test system: Hs-578T; assay: Growth inhibition of human Hs 578T cells assessed as cell growth at 10^-5 M incubated for 48 hrs by sulforhodamine B assay relative to control; conditions: read-out: Activity
[31] = test system: BT-549; assay: Growth inhibition of human BT549 cells assessed as cell growth at 10^-5 M incubated for 48 hrs by sulforhodamine B assay relative to control; conditions: BT-549, 48 h, read-out: Activity
[32] = test system: T47D; assay: Growth inhibition of human T47D cells assessed as cell growth at 10^-5 M incubated for 48 hrs by sulforhodamine B assay relative to control; conditions: read-out: Activity
[33] = test system: MDA-MB-468; assay: Growth inhibition of human MDA-MB-468 cells assessed as cell growth at 10^-5 M incubated for 48 hrs by sulforhodamine B assay relative to control; conditions: MDA-MB-468, 48 h, read-out: Activity

Structure (SMILES): c1ccc2c(c1)[nH]c1c(-c3ccc(-c4nccc5c4[nH]c4ccccc45)cc3)nccc12
- growth at 10 µM [1]: 106%
- growth at 10 µM [2]: 99.1%
- growth at 10 µM [3]: 93.8%
- growth at 10 µM [4]: 97%
- growth at 10 µM [5]: 86%
- growth at 10 µM [6]: 98.7%
- growth at 10 µM [7]: 90.7%
- growth at 10 µM [8]: 77.7%
- growth at 10 µM [9]: 104%
- growth at 10 µM [10]: 92%
- growth at 10 µM [11]: 102%
- growth at 10 µM [12]: 99.7%
- growth at 10 µM [13]: 88.9%
- growth at 10 µM [14]: 82.5%
- growth at 10 µM [15]: 107%
- growth at 10 µM [16]: 89.4%
- growth at 10 µM [17]: 92.5%
- growth at 10 µM [18]: 109%
- growth at 10 µM [19]: 95.6%
- growth at 10 µM [20]: 105%
- growth at 10 µM [21]: 101%
- growth at 10 µM [22]: 105%
- growth at 10 µM [23]: 110%
- growth at 10 µM [24]: 95.9%
- growth at 10 µM [25]: 94.8%
- growth at 10 µM [26]: 99.5%
- growth at 10 µM [27]: 105%
- growth at 10 µM [28]: 60.6%
- growth at 10 µM [29]: 122%
- growth at 10 µM [30]: 97.7%
- growth at 10 µM [31]: 87.6%
- growth at 10 µM [32]: 75.8%
- growth at 10 µM [33]: 105%
